IC50 data for 13 compounds are collected here from patent publication US8591878B2, “Therapeutic compounds” (Merck Sharp & Dohme Corp., priority 2008, dated 2013).

pIC50: −log10 of the molar value.

The first assay relates to subgenomic HCV replicon in Huh-7 cells. Kind of assay: Cell-Based HCV Replication Assay (replicon, NS3 Cell-ELISA). Further details: species or system hepatitis C virus (HCV). Particulars: Hepatitis C virus, Huh-7, 96 h, read-out: Cell based HCV Replication Assay-IC50. The source says: Another suitable assay is the cellular Replicon or rheplisa assay described as follows:
Cell-Based HCV Replication Assay
Cell clones that stably maintain subgenomic HCV replicon were obtained by transfecting Huh-7 cells with an RNA replicon identical to I377neo/NS3-3′/wt described by V. Lohmann et al., 285 SCIENCE 110 (Jul. 2, 1999) (EMBL-GENBANK No. AJ242652), followed by selection with neomycin sulfate (G418). Viral replication was monitored by measuring the expression of the NS3 protein by an ELISA assay performed directly on cells grown in 96-well microtiter plates (Cell-ELISA) using the anti-NS3 monoclonal antibody 10E5/24 (as described in International Patent Application Publication WO 02/59321). Cells were seeded into 96 well plates at a density of 10^4 cells per well in a final volume of 0.1 ml of DMEM/10% FCS. Two hours after plating, 50 μl of DMEM/10% FCS containing a 3× concentration of inhibitor were added, cells were incubated for 96 hours and then fixed for 10 minutes with ice-cold isopropanol. Each condition was tested in duplicate and average absorbance values were used for calculations. The cells were washed twice with PBS, blocked with 5% non-fat dry milk in PBS+0.1% TRITON X-100+0.02% SDS (PBSTS) and then incubated o/n at 4° C. with the 10E5/24 mab diluted in Milk/PBSTS. After washing 5 times with PBSTS, the cells were incubated for 3 hours at room temperature with Fe-specific anti-mouse IgG conjugated to alkaline phosphatase (Sigma), diluted in Milk/PBSTS. After washing again as above, the reaction was developed with p-nitrophenyl phosphate disodium substrate (Sigma) and the absorbance at 405/620 nm read at intervals. For calculations, we used data sets where samples incubated without inhibitors had absorbance values comprised between 1 and 1.5. The inhibitor concentration that reduced by 50% the expression of NS3 (IC50) was calculated by fitting the data to the Hill equation, Fraction inhibition=1−(Ai−b)/(A0−b)=[I]^n/([I]+IC50) where: • Ai=absorbance value of HBI10 cells supplemented with the indicated inhibitor concentration. • A0=absorbance value of HBI10 cells incubated without inhibitor. • b=absorbance value of Huh-7 cells plated at the same density in the same microtiter plates and incubated without inhibitor. • n=Hill coefficient.
`C=C[C@@H]1C[C@]1(NC(=O)[C@@H]1C[C@@H]2CN1C(=O)[C@H](C1CCCCC1)NC(=O)N1CCC[C@H](C1)OCCCc1cc3c(nccc3cc1OC)O2)C(=O)NS(=O)(=O)C1CC1` [Example 11, (3R,5S,8S,15R)-8-cyclohexyl-N-((1R,2S)-1-{[(cyclopropylsulfonyl)amino]carbonyl}-2-vinylcyclopropyl)-21-methoxy-7,10-dioxo-2,16-dioxa-6,9,11,26-tetraazapentacyclo [18.6.2.1^3,6.1^11,15.0^23,27] triaconta-1(26),20,22,24,27-pentaene-5-carboxamide]: the pIC50 (usually the IC50 on a negative log10 scale, so that one unit is a factor of ten) was 8.22.

The same assay, now with this note: Hepatitis C virus; Huh-7 cells with subgenomic HCV replicon; NS3 expression by Cell-ELISA; 96 hours incubation; read-out: Cell based HCV Replication Assay-IC50.
Consider `CC[C@@H]1C[C@]1(NC(=O)[C@@H]1C[C@@H]2CN1C(=O)[C@H](C1CCCC1)NC(=O)N1CC[C@@H](C1)OCCC/C=C/c1cc3ccc(OC)cc3nc1O2)C(=O)NS(=O)(=O)C1CC1` [Example 19, (1R,13E,19S,25S,28S)-25-cyclopentyl-N-((1R,2R)-1-{[(cyclopropylsulfonyl)amino]carbonyl}-2-ethylcyclopropyl)-7-methoxy-23,26-dioxo-2,18-dioxa-4,22,24,27-tetraazapentacyclo [25.2.1.1^19,22.0^3,12.0^5,10] hentriaconta-3(12),4,5,7,9,10,13-heptaene-28-carboxamide], for which the pIC50 is 8.40.
Turning to `CCOc1cc2c3cc(c(OC)cc3n1)/C=C/CO[C@H]1CCN(C1)C(=O)N[C@@H](C1CCCC1)C(=O)N1C[C@@H](C[C@H]1C(=O)N[C@]1(C(=O)NS(=O)(=O)C3CC3)C[C@H]1CC)O2` [Example 23, (3R,5S,8S,14S,17E)-8-cyclopentyl-N-((1R,2R)-1-{[(cyclopropylsulfonyl)amino]carbonyl}-2-ethylcyclopropyl)-24-ethoxy-20-methoxy-7,10-dioxo-2,15-dioxa-6,9,11,23-tetraazapentacyclo [17.6.2.1^3,6.1^11,14.0^22,26] nonacosa-1(25),17,19,21,23,26-hexaene-5-carboxamide], the pIC50 is 8.15.
The same measure, in the same setting: to `C=C[C@@H]1C[C@]1(NC(=O)[C@@H]1C[C@@H]2CN1C(=O)[C@H](C1CCCC1)NC(=O)N1CC[C@@H](C1)OC/C=C/c1cc3c(cc(OCC)nc3cc1OC)O2)C(=O)NS(=O)(=O)C1CC1` [Example 22, (3R,5S,8S,14S,17E)-8-cyclopentyl-N-((1R,2S)-1-{[(cyclopropylsulfonyl)amino]carbonyl}-2-vinylcyclopropyl)-24-ethoxy-20-methoxy-7,10-dioxo-2,15-dioxa-6,9,11,23-tetraazapentacyclo [17.6.2.1^3,6.1^11,14.0^22,26] nonacosa-1(25),17,19,21,23,26-hexaene-5-carboxamide] belongs 7.96.
On to `C=C[C@@H]1C[C@]1(NC(=O)[C@@H]1C[C@@H]2CN1C(=O)[C@H](C1CCCC1)NC(=O)N1CCC[C@@H]1COCCCc1ccc3nc(OCC)nc(c3c1)O2)C(=O)NS(=O)(=O)C1CC1` [Example 28, (6R,8S,11S,17aR)-11-cyclopentyl-N-((1R,2S)-1-{[(cyclopropylsulfonyl)amino]carbonyl}-2-vinylcyclopropyl)-3-ethoxy-10,13-dioxo-7,8,10,11,12,13,16,17,17a,18, 20,21-dodecahydro-6H,15H-1,22-(ethanediylidene)-6,9-methanopyrimido [4,5-n] pyrrolo[2,1-c][1,13,4,6,9] dioxatriazacyclononadecine-8-carboxamide], for which the pIC50 was 8.22.
The same measure, in the same setting: the result for `C=C[C@@H]1C[C@]1(NC(=O)[C@@H]1C[C@@H]2CN1C(=O)[C@H](C1CCCCC1)NC(=O)N1CCC[C@@H](C1)OCCCc1cc3c(cc(-c4ccccc4)nc3cc1OC)O2)C(=O)NS(=O)(=O)C1CC1` [Example 9, (3R,5S,8S,15S)-8-cyclohexyl-N-((1R,2S)-1-{[(cyclopropylsulfonyl)amino]carbonyl}-2-vinylcyclopropyl)-21-methoxy-7,10-dioxo-25-phenyl-2,16-dioxa-6,9,11,24-tetraazapentacyclo [18.6.2.1^3,6.1^11,15.0^23,27] triaconta-1(27),20,22,23,25,27-hexaene-5-carboxamide] reads 8.15; that for `C=C[C@@H]1C[C@]1(NC(=O)[C@@H]1C[C@@H]2CN1C(=O)[C@H](C1CCCCC1)NC(=O)N1CCC[C@H](CCCCc3cc4c(cc(-c5ccccc5)nc4cc3OC)O2)C1)C(=O)NS(=O)(=O)C1CC1` [Example 6, (3R,5S,8S,15S)-8-cyclohexyl-N-((1R,2S)-1-{[(cyclopropylsulfonyl)amino]carbonyl}-2-vinylcyclopropyl)-21-methoxy-7,10-dioxo-25-phenyl-2-oxa-6,9,11,24-tetraazapentacyclo [18.6.2.1^3,6.1^11,15.0^23,27] triaconta-1(27),20,22,23,25,27-hexaene-5-carboxamide], 7.62.
Same read-out and setting: to `C=C[C@@H]1C[C@]1(NC(=O)[C@@H]1C[C@@H]2CN1C(=O)[C@H](C1CCCC1)CNC(=O)N1CC[C@H](COCCCc3nc4ccc(OC)cc4cc3O2)C1)C(=O)NS(=O)(=O)C1CC1` [Example 33, (1R,18S,24S,27S)-24-cyclopentyl-N-((1R,2R)-1-{[(cyclopropylsulfonyl)amino]carbonyl}-2-vinylcyclopropyl)-7-methoxy-22,25-dioxo-2,16-dioxa-11,21,23,26-tetraazapentacyclo [24.2.1.1^18,21.0^3,12.0^5,10] triaconta-3(12),4,5,7,9,10-hexaene-27-carboxamide] belongs < 7.00.
The same measure, in the same setting: the result for `C=CC1C[C@]1(NC(=O)[C@@H]1C[C@@H]2CN1C(=O)[C@H](C1CCCCC1)NC(=O)N1CCC(CC1)OCCC/C=C/c1cc3c(cc(OCC)nc3cc1OC)O2)C(=O)NS(=O)(=O)C1CC1` (stereo in doubt) [Example 32, (3R,5S,8S,19E)-8-cyclohexyl-N-((1R,2R)-1-{[(cyclopropylsulfonyl)amino]carbonyl}-2-vinylcyclopropyl)-26-ethoxy-22-methoxy-7,10-dioxo-2,15-dioxa-6,9,11,25-tetraazapentacyclo [19.6.2.2^11,14.1^3,6.0^24,28] dotriaconta-1(27),19,21,23,25,28-hexaene-5-carboxamide] reads 8.00; that for `C=C[C@@H]1C[C@]1(NC(=O)[C@@H]1C[C@@H]2CN1C(=O)[C@H](C(C)(C)C)NC(=O)N1CCC[C@H]1CC/C=C/c1cccc3c1CN(C3)C(=O)O2)C(=O)NS(=O)(=O)C1CC1` [Example 4, (1R,12E,16R,23S,26S)-23-tert-butyl-N-((1R,2S)-1-{[(cyclopropylsulfonyl)amino]carbonyl}-2-vinylcyclopropyl)-3,21,24-trioxo-2-oxa-4,20,22,25-tetraazapentacyclo [23.2.1.1^4,7.0^6,11.0^16,20] nonacosa-6,8,10,12-tetraene-26-carboxamide], 6.59.
`C=C[C@@H]1C[C@]1(NC(=O)[C@@H]1C[C@@H]2CN1C(=O)[C@H](C1CCCC1)NC(=O)N1CC[C@H](COCCCc3nc4ccc(OC)cc4cc3O2)C1)C(=O)NS(=O)(=O)C1CC1` [Example 25, (1R,18S,24S,27S)-24-cyclopentyl-N-((1R,2R)-1-{[(cyclopropylsulfonyl)amino]carbonyl}-2-vinylcyclopropyl)-7-methoxy-22,25-dioxo-2,16-dioxa-11,21,23,26-tetraazapentacyclo [24.2.1.1^18,21.0^3,12.0^5,10] triaconta-3(12),4,5,7,9,10-hexaene-27-carboxamide]: the negative logarithm of the IC50 (pIC50) was 8.15.

The same assay, now with this note: Hepatitis C virus; Huh-7 replicon cells; NS3 expression by Cell-ELISA; 96 hours; read-out: Cell-based HCV Replication Assay: IC50.
As to `C=C[C@@H]1C[C@]1(NC(=O)[C@@H]1C[C@@H]2CN1C(=O)[C@H](C1CCCCC1)NC(=O)N1CC(C1)OCCCCc1cc3c(cc(OCC)nc3cc1OC)O2)C(=O)NS(=O)(=O)C1CC1` [Example 45, (3R,5S,8S)-8-cyclohexyl-N-((1R,2S)-1-{[(cyclopropylsulfonyl)amino]carbonyl}-2-vinylcyclopropyl)-24-ethoxy-20-methoxy-7,10-dioxo-2,14-dioxa-6,9,11,23-tetraazapentacyclo[17.6.2.1^3,6.1^11,13.0^22,26]nonacosa-1(25),19,21,23,26-pentaene-5-carboxamide], the pIC50 is 8.22.

Still in this assay, the particulars now being: Huh-7 cells with subgenomic HCV replicon; NS3 expression by Cell-ELISA; 96 hours incubation; read-out: Cell based HCV Replication Assay-IC50.
Regarding “(1R,13E,19S,25S,28S)-25- cyclohexyl-N-((1R,2S)-1- {[(cyclopropylsulfonyl)amino] carbonyl}-2- vinylcyclopropyl)-7-methoxy- 23,26-dioxo-2,18-dioxa- 4,22,24,27-tetraazapentacyclo [25.2.1.1^19,22.0^3,12.0^5,10] hentriaconta- 3(12),4,5,7,9,10,13-heptaene- 28-carboxamide [Example 42]”, the pIC50 is 8.52.
